Assay results taken from ChEMBL document CHEMBL5608215, “Development of amphipathic derivatives of thymol and carvacrol as potent broad-spectrum antibacterial agents” (Eur J Med Chem, 2024).
Values after ≈ are worked out from the molar mass of the structure shown.

Tests used:
Format in all cases: functional
[1] = system: Staphylococcus aureus; test: Antibacterial activity against Staphylococcus aureus ATCC29213 by CLSI based serial dilution method
[2] = system: Staphylococcus aureus; test: Antibacterial activity against methicillin-resistant Staphylococcus aureus 21-5 by CLSI based serial dilution method
[3] = system: Enterococcus faecalis; test: Antibacterial activity against Enterococcus faecalis ATCC29212 by CLSI based serial dilution method
[4] = system: Enterococcus; test: Antibacterial activity against vancomycin-resistant Enterococcus ATCC51299 by CLSI based serial dilution method
[5] = system: Escherichia coli; test: Antibacterial activity against Escherichia coli ATCC25922 by CLSI based serial dilution method
[6] = system: Pseudomonas aeruginosa; test: Antibacterial activity against Pseudomonas aeruginosa ATCC27853 by CLSI based serial dilution method

SMILES | MIC [1] | MIC [2] | MIC [3] | MIC [4] | MIC [5] | MIC [6]
CCCCCNC(=O)C[N+](C)(C)CCCCOc1cc(C)ccc1C(C)C.[Br-] | 8 µg/mL | 8 µg/mL | 16 µg/mL | 32 µg/mL | 32 µg/mL | > 128 µg/mL
Cc1ccc(C(C)C)c(OCCCCC[N+](C)(C)CC(=O)N(C(C)C)C(C)C)c1.[Br-] | 4 µg/mL | 2 µg/mL | 8 µg/mL | 16 µg/mL | 64 µg/mL | > 128 µg/mL
CCCCCCCNC(=O)C[N+](C)(C)CCCCOc1cc(C(C)C)ccc1C.[Br-] | 1 µg/mL | 16 µg/mL | 2 µg/mL | 4 µg/mL | 4 µg/mL | 16 µg/mL
CCCCCCNC(=O)C[N+](C)(C)CCCOc1cc(C(C)C)ccc1C.[Br-] | 4 µg/mL | 8 µg/mL | 4 µg/mL | 8 µg/mL | 16 µg/mL | 32 µg/mL
CCCNC(=O)C[N+](C)(C)CCCOc1cc(C)ccc1C(C)C.[Br-] | 64 µg/mL | 128 µg/mL | 128 µg/mL | > 128 µg/mL | > 128 µg/mL | > 128 µg/mL
Cc1ccc(C(C)C)cc1OCCC[N+](C)(C)CC(=O)N(CC(C)C)CC(C)C.[Br-] | 4 µg/mL | 16 µg/mL | 16 µg/mL | 16 µg/mL | 64 µg/mL | > 128 µg/mL
CCCNC(=O)C[N+](C)(C)CCCCCOc1cc(C)ccc1C(C)C.[Br-] | 32 µg/mL | 32 µg/mL | 64 µg/mL | 128 µg/mL | 128 µg/mL | > 128 µg/mL
Cc1ccc(C(C)C)c(OCCCC[N+](C)(C)CC(=O)N2CCSCC2)c1.[Br-] | 64 µg/mL | 64 µg/mL | 64 µg/mL | > 128 µg/mL | > 128 µg/mL | > 128 µg/mL
Cc1ccc(C(C)C)c(OCCCC[N+](C)(C)CC(=O)N(CC(C)C)CC(C)C)c1.[Br-] | 4 µg/mL | 4 µg/mL | 8 µg/mL | 16 µg/mL | 64 µg/mL | > 128 µg/mL
CCCCNC(=O)C[N+](C)(C)CCCCCOc1cc(C)ccc1C(C)C.[Br-] | 8 µg/mL | 16 µg/mL | 16 µg/mL | 64 µg/mL | 64 µg/mL | > 128 µg/mL
Cc1ccc(C(C)C)cc1OCCC[N+](C)(C)CC(=O)N1CCOCC1.[Br-] | 128 µg/mL | > 128 µg/mL | 128 µg/mL | > 128 µg/mL | > 128 µg/mL | > 128 µg/mL
CCCCCCCNC(=O)C[N+](C)(C)CCCOc1cc(C)ccc1C(C)C.[Br-] | 1 µg/mL | 8 µg/mL | 2 µg/mL | 4 µg/mL | 4 µg/mL | 16 µg/mL
CCCCCNC(=O)C[N+](C)(C)CCCCOc1cc(C(C)C)ccc1C.[Br-] | 4 µg/mL | 8 µg/mL | 8 µg/mL | 16 µg/mL | 16 µg/mL | 128 µg/mL
CCCCNC(=O)C[N+](C)(C)CCCCCOc1cc(C(C)C)ccc1C.[Br-] | 16 µg/mL | 16 µg/mL | 16 µg/mL | 128 µg/mL | > 64 µg/mL | > 128 µg/mL
CCCCN(CCCC)C(=O)C[N+](C)(C)CCCCCOc1cc(C(C)C)ccc1C.[Br-] | 1 µg/mL | 2 µg/mL | 2 µg/mL | 32 µg/mL | 16 µg/mL | 32 µg/mL
CCCCN(CCCC)C(=O)C[N+](C)(C)CCCOc1cc(C(C)C)ccc1C.[Br-] | 4 µg/mL | 8 µg/mL | 8 µg/mL | 16 µg/mL | 64 µg/mL | > 128 µg/mL
CCCCCCN(CCCCCC)C(=O)C[N+](C)(C)CCCCCOc1cc(C)ccc1C(C)C.[Br-] | > 128 µg/mL | > 128 µg/mL | > 128 µg/mL | > 128 µg/mL | > 128 µg/mL | > 128 µg/mL

SMILES | MIC [1] | MIC [2] | MIC [3] | MIC [4] | MIC [5] | MIC [6]
Cc1ccc(C(C)C)c(OCCC[N+](C)(C)CC(=O)N2CCSCC2)c1.[Br-] | 64 µg/mL | 64 µg/mL | 128 µg/mL | > 128 µg/mL | > 128 µg/mL | > 128 µg/mL
CCCCCNC(=O)C[N+](C)(C)CCCCCOc1cc(C(C)C)ccc1C.[Br-] | 4 µg/mL | 8 µg/mL | 8 µg/mL | 16 µg/mL | 16 µg/mL | 64 µg/mL
CCCN(CCC)C(=O)C[N+](C)(C)CCCCOc1cc(C(C)C)ccc1C.[Br-] | 16 µg/mL | 32 µg/mL | 32 µg/mL | 64 µg/mL | 128 µg/mL | > 128 µg/mL
CCCN(CCC)C(=O)C[N+](C)(C)CCCOc1cc(C)ccc1C(C)C.[Br-] | 16 µg/mL | 16 µg/mL | 32 µg/mL | 128 µg/mL | 128 µg/mL | > 128 µg/mL
CCCCN(CCCC)C(=O)C[N+](C)(C)CCCCOc1cc(C(C)C)ccc1C.[Br-] | 2 µg/mL | 4 µg/mL | 4 µg/mL | 16 µg/mL | 32 µg/mL | 128 µg/mL
Cc1ccc(C(C)C)c(OCCC[N+](C)(C)CC(=O)N(C(C)C)C(C)C)c1.[Br-] | 16 µg/mL | 16 µg/mL | 16 µg/mL | 32 µg/mL | 128 µg/mL | > 128 µg/mL
Cc1ccc(C(C)C)cc1O [CARVACROL] | > 128 µg/mL | > 128 µg/mL | 128 µg/mL (≈ 852 µM) | > 128 µg/mL | 128 µg/mL (≈ 852 µM) | > 128 µg/mL
CCCCCCN(CCCCCC)C(=O)C[N+](C)(C)CCCCCOc1cc(C(C)C)ccc1C.[Br-] | 1 µg/mL | 16 µg/mL | 1 µg/mL | 1 µg/mL | 8 µg/mL | 16 µg/mL
CCCCNC(=O)C[N+](C)(C)CCCOc1cc(C(C)C)ccc1C.[Br-] | 32 µg/mL | 64 µg/mL | 32 µg/mL | 64 µg/mL | 64 µg/mL | > 128 µg/mL
CCCCCCNC(=O)C[N+](C)(C)CCCCCOc1cc(C(C)C)ccc1C.[Br-] | 2 µg/mL | 2 µg/mL | 2 µg/mL | 8 µg/mL | 8 µg/mL | 16 µg/mL
CCCCCCN(CCCCCC)C(=O)C[N+](C)(C)CCCOc1cc(C)ccc1C(C)C.[Br-] | 16 µg/mL | > 128 µg/mL | 16 µg/mL | 32 µg/mL | 128 µg/mL | > 128 µg/mL
CCCN(CCC)C(=O)C[N+](C)(C)CCCOc1cc(C(C)C)ccc1C.[Br-] | 32 µg/mL | 64 µg/mL | 32 µg/mL | 128 µg/mL | 128 µg/mL | > 128 µg/mL
CCCCCCN(CCCCCC)C(=O)C[N+](C)(C)CCCOc1cc(C(C)C)ccc1C.[Br-] | 0.25 µg/mL | 8 µg/mL | 0.25 µg/mL | 1 µg/mL | 4 µg/mL | 16 µg/mL
Cc1ccc(C(C)C)c(OCCCCC[N+](C)(C)CC(=O)N2CCSCC2)c1.[Br-] | 32 µg/mL | 32 µg/mL | 32 µg/mL | 128 µg/mL | 128 µg/mL | > 128 µg/mL
Cc1ccc(C(C)C)cc1OCCCCC[N+](C)(C)CC(=O)N1CCOCC1.[Br-] | 128 µg/mL | 128 µg/mL | 128 µg/mL | > 128 µg/mL | > 128 µg/mL | > 128 µg/mL
CCCCCCCNC(=O)C[N+](C)(C)CCCCCOc1cc(C)ccc1C(C)C.[Br-] | 4 µg/mL | 16 µg/mL | 4 µg/mL | 8 µg/mL | 16 µg/mL | 32 µg/mL
